The target of data set [1] is T1, mouse abdominal macrophage microsome ACAT (Mus musculus, UniProt Q61263).
T1 construct: from tissue; host or cells: microsomes of thioglycolate-elicited peritoneal (abdominal) macrophages of C57BL6J mice, cultured 24 h with rabbit beta-VLDL
T1 sequence (Q61263 1-540): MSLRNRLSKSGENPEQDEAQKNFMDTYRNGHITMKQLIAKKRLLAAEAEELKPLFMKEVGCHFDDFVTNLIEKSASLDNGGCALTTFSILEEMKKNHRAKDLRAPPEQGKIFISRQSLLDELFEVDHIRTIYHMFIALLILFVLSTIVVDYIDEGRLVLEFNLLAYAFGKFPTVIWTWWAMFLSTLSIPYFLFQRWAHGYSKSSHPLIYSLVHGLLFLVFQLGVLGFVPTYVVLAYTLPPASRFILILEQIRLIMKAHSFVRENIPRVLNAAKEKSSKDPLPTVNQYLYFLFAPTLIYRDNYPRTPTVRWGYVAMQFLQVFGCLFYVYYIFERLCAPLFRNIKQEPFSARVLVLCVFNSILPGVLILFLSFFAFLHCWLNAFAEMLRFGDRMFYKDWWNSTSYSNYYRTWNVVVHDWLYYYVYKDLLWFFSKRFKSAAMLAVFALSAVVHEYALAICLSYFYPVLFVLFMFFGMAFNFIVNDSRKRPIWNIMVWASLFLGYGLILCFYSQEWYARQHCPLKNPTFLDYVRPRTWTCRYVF
The experiment in a line: ACAT inhibitory activity (mouse abdominal macrophage microsome ACAT). The note with it: microsome ACAT from thioglycolate-stimulated C57BL6J mouse abdominal macrophage; 3H-oleyl-CoA, 37° C. for 20 minutes; read-out: Enzyme inhibition (IC50). In kind it is biochemical. Here is the method: [Preparation of Mouse Abdominal Macrophage Microsome ACAT]
According to the method of Hakamada et al. (Experimental Medicine Suppliment vol. 14, No. 12, Circulation Research Protocol, p, 49-52, 1996), an abdominal macrophage was taken from a thioglycolate-stimulated C57BL6J mouse and cultured for 24 hours in a RPMI 1640-25 mM HEPES (pH7.0) medium containing rabbit β-very low density lipoprotein (β-VLDL, 150 μg cholesterol/ml) which had been prepared by the method of Ishii et al. (Ishii I et al., Arterioscler, Thromb, 12, 1139-1145, 1992). The abdominal macrophage was then collected by centrifugation (4° C., 1.000 rpm, 5 minutes) and sonicated. The sonicated liquid was centrifuged (4° C., 5000 rpm, 15 minutes) and then ultracentrifuged (4° C., 50, 000 rpm, 90 minutes) to prepare a microsome. The microsome thus obtained was used for measuring ACAT inhibitory activity of a test compound as mouse abdominal macrophage microsome ACAT.
[Method for Measuring ACAT Inhibitory Activity]
A mixture of a test compound, cholesterol-albumin-containing-Tris-HCL buffer (pH 7.5) and mouse abdominal macrophage microsome ACAT was pre-incubated at 37° C. for 10 minutes, and ^3H-oleyl-CoA was added to react at 37° C. for 20 minutes. A stopping solution composed of chloroform-methyl alcohol-distilled water (2:2:1 v/v) was added, and produced cholesteryl ester (CE) was extracted with shaking. The extract was subjected to silica gel thin chromatography (petroleum ether:diethyl ether:acetic acid=9:1:0.1 v/v), and the resulting ^3H-CE fraction was measured with a scintillation counter.
ACAT inhibiting rate was calculated from the proportion based on ACAT activity without a test compound, and an IC50 value was calculated as the concentration (μM) of a test compound showing ACAT inhibiting rate 50%. The results are shown in [Table 15].

In general, IC50 refers to the concentration that gives 50% inhibition. Usually melting point stands for the temperature of the solid-liquid transition.

On to `Cc1cc2c(-c3cccc(CCCC(=O)O)c3)c(CC(=O)Nc3ccc(F)cc3C(F)(F)F)c(=O)oc2cc1Cl` [Example 78], for which, in data set [1], the IC50 was found to be 430 nM.

On to `O=C(O)/C=C/c1cccc(-c2c(CC(=O)Nc3ccc(F)cc3C(F)(F)F)c(=O)oc3cc(Cl)c(CN4CCN(c5ccccc5)CC4)cc23)c1` [Example 110, (2E)-3-(3-{7-chloro-3-(2-{[4-fluoro-2-(trifluoromethyl)phenyl]amino}-2-oxoethyl)-2-oxo-6-[(4-phenylpiperazin-1-yl)methyl]-2H-chromen-4-yl}phenyl)acrylic acid], for which the melting point was in the range of 238 to 240 °C. Further, the IC50 in data set [1] turned out to be 540 nM.

With `O=C(O)/C=C/c1cccc(-c2c(CC(=O)Nc3ccc(Cl)cc3C(F)(F)F)c(=O)oc3cc(Cl)c(CN4CCN(c5ccccc5)CC4)cc23)c1` [Example 111, (2E)-3-(3-{7-chloro-3-(2-{[4-chloro-2-(trifluoromethyl)phenyl]amino}-2-oxoethyl)-2-oxo-6-[(4-phenylpiperazin-1-yl)methyl]-2H-chromen-4-yl}phenyl)acrylic acid], the melting point is 239 to 241 °C. Further, the IC50 in data set [1] turned out to be 610 nM.

`O=C(Cc1c(-c2cccc(C(=O)O)c2)c2cc(CN3CCN(c4ccccc4)CC3)c(Cl)cc2oc1=O)Nc1ccc(F)cc1C(F)(F)F` [Example 112, 3-{7-chloro-3-(2-{[4-fluoro-2-(trifluoromethyl)phenyl]amino}-2-oxoethyl)-2-oxo-6-[(4-phenylpiperazin-1-yl)methyl]-2H-chromen-4-yl}benzoic acid] yielded a melting point of 149 to 151 °C. Further, the IC50 in data set [1] is 540 nM.

Molecule `O=C(Cc1c(-c2cccc(C(=O)O)c2)c2cc(CN3CCN(c4ccccc4)CC3)c(Cl)cc2oc1=O)Nc1ccc(Cl)cc1C(F)(F)F` [Example 113, 3-{7-chloro-3-(2-{[4-chloro-2-(trifluoromethyl)phenyl]amino}-2-oxoethyl)-2-oxo-6-[(4-phenylpiperazin-1-yl)methyl]-2H-chromen-4-yl}benzoic acid] gave a melting point of 151 to 153 °C. Further, the IC50 in data set [1] stood at 1220 nM.

In the case of `O=C(O)CCc1cccc(-c2c(CC(=O)Nc3ccc(F)cc3C(F)(F)F)c(=O)oc3cc(Cl)c(CN4CCN(c5ccccc5)CC4)cc23)c1` [Example 114], the melting point lay within 226 to 228 °C. For the same molecule, the 50% inhibitory concentration (IC50) in data set [1] amounted to 550 nM.

Turning to `O=C(O)CCc1cccc(-c2c(CC(=O)Nc3ccc(Cl)cc3C(F)(F)F)c(=O)oc3cc(Cl)c(CN4CCN(c5ccccc5)CC4)cc23)c1` [Example 115], the melting point lay within 207 to 209 °C. Also, in data set [1], the IC50 turned out to be 420 nM.

Values taken from patent publication US20070179154A1, “Coumarin derivatives, process for their production and use thereof” (Takeda Pharmaceutical Company Limited, priority 2002, published 2007).
